From US20060009480A1, “Sinomenine and sinomenine compounds, synthesis and use” (priority 2002, published 2006)

What was measured:
Wistar rat [1] = experiment: Social recognition in the Wistar rat; assay type: in vivo; details: dose of 20 mg/kg (printed for Example 13); second encounter after 2 hours
Text: Initially described in 1982 by THOR and HOLLOWAY (J. Comp. Physiol., 1982, 96, 1000-1006), the social recognition test has subsequently been proposed by various authors (DANTZER et al., Psychopharmacology, 1987, 91, 363-368; PERIO et al., Psychopharmacology, 1989, 97, 262-268) for studying the mnemocognitive effects of new compounds. The test is based on the natural expression of the olfactory memory of the rat and its natural tendency to forget, and allows evaluation of memorisation, by recognition of a young congeneric animal, by an adult rat. A young rat (21 days), taken at random, is placed for 5 minutes in the cage housing an adult rat. With the aid of a video device, the experimenter observes the social recognition behaviour of the adult rat and measures its overall duration. The young rat is then removed from the adult rat's cage and is placed in its own cage until the second introduction. The adult rat is given the compound under test and, after 2 hours, is again brought into the presence (5 minutes) of the young rat. The social recognition behaviour is then observed again and its duration measured. The assessment criterion is the difference (T2−T1), expressed in seconds, between the “recognition” times of the 2 encounters.

NaNO2 induced anoxia = NaNO2 induced anoxia in mice; assay type: in vivo, mouse; details: 70 mg/kg p.o.; NaNO2 225 mg/kg ip
Wistar rat [2] = experiment: Object recognition in the Wistar rat; assay type: in vivo; details: dose of 3 mg/kg; second session 24 hours later
Text: The object recognition test in the Wistar rat was initially developed by ENNACEUR and DELACOUR (Behav. Brain Res., 1988, 31, 47-59). The test is based on the spontaneous exploratory activity of the animal and has the characteristics of episodic memory in humans. This memory test is sensitive to ageing (SCALI et al., Eur. J. Pharmacol., 1997, 325, 173-180) and to cholinergic dysfunctions (BARTOLINI et al., Pharm. Biochem. Behav. 1996, 53(2), 277-283) and is based on the differences in the exploration of 2 objects of fairly similar shape—one familiar, the other new. Prior to the test, the animals are habituated to the environment (an enclosure without an object). In the course of a first session, the rats are placed (3 minutes) in the enclosure, in which there are 2 identical objects. The duration of exploration is measured for each object. In the course of the second session (3 minutes), 24 hours later, 1 of the 2 objects is replaced by a new object. The duration of exploration is measured for each object. The assessment criterion is the difference, Delta, expressed in seconds, between the exploration times for the new object and for the familiar object in the course of the second session.

Structure (SMILES): COC1=CC2C3Cc4c(Br)cc(OC)c(O)c4C2(CCN3C)CC1O (stereo not drawn) [Example 13, (9α,13α)-1-Bromo-3,7-dimethoxy-17-methyl-7,8-didehydromorphinan-4,6-diol]
- difference (T2−T1) between the recognition times of the 2 encounters (Wistar rat [1]): -36 s

Structure (SMILES): CCC(=O)Oc1c(OC)cc(Cl)c2c1C13CCN(C)C(C2)C1C=C(OC)C(OC(=O)CC)C3 (stereo not drawn) [Example 5, (9α,13α)-1-Chloro-3,7-dimethoxy-17-methyl4-(propionyloxy)7,8-didehydromorphinan-6-yl propionate]
- difference (T2−T1) between the recognition times of the 2 encounters (Wistar rat [1]): -31 s
- prolongation of survival (NaNO2 induced anoxia): 31%

Structure (SMILES): COC1=CC2C3Cc4c(Cl)cc(OC)c(O)c4C2(CCN3C)CC1O (stereo not drawn) [Example 4, (9α,13α)-1-Chloro-3,7-dimethoxy-17-methyl-7,8-didehydromorphinan-4,6-diol]
- difference, Delta, between the exploration times for the new object and the familiar object (Wistar rat [2]): 10 s
